Series [1] in a line: Solubility to water (37° C.). In kind it is physicochemical. The settings on record: for Water-solubility (in words) / solubility: 37° C., water; for solubility: Table 1.
Series [2] can be described thus: Moisture adsorption/desorption (microbalance, automatic vapor adsorption apparatus). Format: physicochemical. The following applies: for Moisture adsorption/desorption: change in weight / stability: crystals about 20 mg, relative humidities 10 to 90% RH. The method, then: Compound (1), compound (a), and salts of compound (a) prepared in Example 1, Referential Example 1, and Comparative Example 1, respectively, were evaluated in terms of moisture adsorption/desorption. Specifically, the amount of water adsorbed on or desorbed from each compound was determined through subjecting crystals (about 20 mg) of each compound to a microbalance (automatic vapor adsorption apparatus) and measuring time-elapsed change in weight at relative humidities (RH) ranging from 10 to 90%.

The next series deals with VLA-4 (Homo sapiens, UniProt P05556+P13612). As to the kind of experiment: VLA-4 inhibitory activity. Format: binding. The settings on record: compared with compound (a).

Each structure is given as a SMILES string. In brackets after ≈: the same amount, converted by molar mass.

VLA-4, sequence (P13612 34-1032): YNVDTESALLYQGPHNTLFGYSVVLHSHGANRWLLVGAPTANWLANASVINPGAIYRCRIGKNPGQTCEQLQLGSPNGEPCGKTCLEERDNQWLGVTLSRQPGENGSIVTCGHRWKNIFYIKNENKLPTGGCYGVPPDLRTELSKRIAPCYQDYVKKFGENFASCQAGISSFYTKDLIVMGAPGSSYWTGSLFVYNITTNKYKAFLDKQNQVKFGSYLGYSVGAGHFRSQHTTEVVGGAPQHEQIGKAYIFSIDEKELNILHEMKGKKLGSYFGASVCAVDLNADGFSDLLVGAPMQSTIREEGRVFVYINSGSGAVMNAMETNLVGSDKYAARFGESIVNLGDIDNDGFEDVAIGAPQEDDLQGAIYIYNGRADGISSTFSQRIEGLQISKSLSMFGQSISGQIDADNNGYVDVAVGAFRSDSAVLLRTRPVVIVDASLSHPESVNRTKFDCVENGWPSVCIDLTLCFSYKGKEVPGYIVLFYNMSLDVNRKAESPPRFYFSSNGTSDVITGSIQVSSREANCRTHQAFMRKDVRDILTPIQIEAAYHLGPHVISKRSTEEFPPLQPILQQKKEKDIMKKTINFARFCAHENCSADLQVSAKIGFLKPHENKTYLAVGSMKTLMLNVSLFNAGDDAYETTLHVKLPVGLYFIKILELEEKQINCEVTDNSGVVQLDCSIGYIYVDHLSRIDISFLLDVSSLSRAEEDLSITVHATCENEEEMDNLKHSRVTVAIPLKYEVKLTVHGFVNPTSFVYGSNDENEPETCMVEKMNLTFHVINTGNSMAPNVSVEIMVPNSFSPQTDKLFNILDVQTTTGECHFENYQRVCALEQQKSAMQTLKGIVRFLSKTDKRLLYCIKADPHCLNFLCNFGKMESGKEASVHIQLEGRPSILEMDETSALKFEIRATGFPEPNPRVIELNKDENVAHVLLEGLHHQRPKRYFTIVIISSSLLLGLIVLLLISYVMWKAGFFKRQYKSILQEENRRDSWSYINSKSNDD
VLA-4, sequence (P05556 21-798): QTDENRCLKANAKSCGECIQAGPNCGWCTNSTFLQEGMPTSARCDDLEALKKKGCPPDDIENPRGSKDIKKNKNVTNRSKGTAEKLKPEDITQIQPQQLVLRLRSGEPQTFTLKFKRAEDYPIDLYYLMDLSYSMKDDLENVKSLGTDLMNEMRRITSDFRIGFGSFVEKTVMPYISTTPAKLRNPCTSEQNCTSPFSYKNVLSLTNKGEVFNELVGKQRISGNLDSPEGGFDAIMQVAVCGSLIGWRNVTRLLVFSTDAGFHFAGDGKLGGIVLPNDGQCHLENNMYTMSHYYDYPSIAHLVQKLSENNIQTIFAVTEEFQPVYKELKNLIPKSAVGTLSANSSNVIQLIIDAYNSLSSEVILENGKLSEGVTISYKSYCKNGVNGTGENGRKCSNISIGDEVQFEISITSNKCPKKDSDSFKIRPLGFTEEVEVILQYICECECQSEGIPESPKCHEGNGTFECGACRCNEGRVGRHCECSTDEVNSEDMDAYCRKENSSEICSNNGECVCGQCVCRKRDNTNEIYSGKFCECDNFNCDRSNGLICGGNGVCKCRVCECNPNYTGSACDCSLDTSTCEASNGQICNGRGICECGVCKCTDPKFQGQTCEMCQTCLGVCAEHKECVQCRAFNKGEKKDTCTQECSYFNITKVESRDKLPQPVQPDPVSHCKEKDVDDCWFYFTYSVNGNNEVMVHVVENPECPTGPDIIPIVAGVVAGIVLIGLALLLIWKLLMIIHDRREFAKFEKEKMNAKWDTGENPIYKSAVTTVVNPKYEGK

Take `CO[C@H]1C[C@@H](CO[C@H]2CC[C@H](C(=O)[O-])CC2)N(C(=O)Cc2cc(Cl)c(NC(=O)c3cn(C)c4ccccc34)cc2Cl)C1.[Na+]` [Type-I]: the “Water Solubility” value in series [1] (crystal forms of compound (1), manner similar to Test Example 2, Table 3) is above 1000 µg/mL. In series [2] (Type-I and Type-II crystals of compound (1), FIG. 5), the “Storage stability (moisture adsorption/desorption property) of crystal forms” value is listed as “good storage stability”.

For orientation: solubility means the dissolved amount per volume that the medium holds. A lower solubility goes with a poorly soluble substance. For the compound `CO[C@H]1C[C@@H](CO[C@H]2CC[C@H](C(=O)[O-])CC2)N(C(=O)Cc2cc(Cl)c(NC(=O)c3cn(C)c4ccccc34)cc2Cl)C1.[Na+]` [Compound (1), sodium trans-4-[1-[2,5-dichloro-4-[(1-methyl-1H-3-indolylcarbonyl)amino]phenylacetyl]-(4S)-methoxy-(2S)-pyrrolidinylmethoxy]cyclohexanecarboxylate pentahydrate], in series [1], the “Water-solubility (in words)” value is on record as “very high water-solubility” and the solubility was above 1000 µg/mL. Besides, in series [2], the “Moisture adsorption/desorption: change in weight / stability” value is “no change in weight under typical humidity conditions”. Besides, the VLA-4 inhibitory activity entry on VLA-4 is “comparable to that of compound (a)”.

As to `CO[C@H]1C[C@@H](CO[C@H]2CC[C@H](C(=O)O)CC2)N(C(=O)Cc2cc(Cl)c(NC(=O)c3cn(C)c4ccccc34)cc2Cl)C1` [Compound (a), trans-4-[1-[2,5-dichloro-4-[(1-methyl-1H-3-indolylcarbonyl)amino]phenylacetyl]-(4S)-methoxy-(2S)-pyrrolidinylmethoxy]cyclohexanecarboxylic acid, reference compound], in series [1], the “Water-solubility (in words)” value was “considerably low water-solubility” and the solubility was found to be 0.653 µg/mL (≈ 1.06 µM). Also, the “Moisture adsorption/desorption: change in weight / stability” value in series [2] is “change in weight at 40 to 60% RH”.

Values taken from patent publication US7893279B2, “Cyclohexanecarboxylic acid compound” (Daiichi Pharmaceutical Co., Ltd., priority 2003, dated 2011).
